From patent US20240109917A1 (ACTELION PHARMACEUTICALS LTD, priority 2020, published 2024)
Read-outs that look alike come from different tables or passages of the source.

Legend:
PDGFRβ = PDGFRβ (Rattus norvegicus (Rat), UniProt Q05030); experiment: PDGFRβ Cellular Assay (PDGFRb P-Y751 HTRF in A10 cells stimulated with PDGF-BB); type: cell-based
Method in brief: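 Phospho-Y751 PDGFRβ was measured by HTRF in lysates of A10 rat cells. Cells received compound for 3 hours before PDGF-BB stimulation (100 ng/mL working stock).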

[1] = target: Tb-labeled inactive PDGFRβ (Homo sapiens (Human), UniProt P09619); experiment: PDGFRβ LanthaScreen Assay; type: binding; conditions: read-out: PDGFR Lantha IC50
Sequence of Tb-labeled inactive PDGFRβ (P09619 33-1106): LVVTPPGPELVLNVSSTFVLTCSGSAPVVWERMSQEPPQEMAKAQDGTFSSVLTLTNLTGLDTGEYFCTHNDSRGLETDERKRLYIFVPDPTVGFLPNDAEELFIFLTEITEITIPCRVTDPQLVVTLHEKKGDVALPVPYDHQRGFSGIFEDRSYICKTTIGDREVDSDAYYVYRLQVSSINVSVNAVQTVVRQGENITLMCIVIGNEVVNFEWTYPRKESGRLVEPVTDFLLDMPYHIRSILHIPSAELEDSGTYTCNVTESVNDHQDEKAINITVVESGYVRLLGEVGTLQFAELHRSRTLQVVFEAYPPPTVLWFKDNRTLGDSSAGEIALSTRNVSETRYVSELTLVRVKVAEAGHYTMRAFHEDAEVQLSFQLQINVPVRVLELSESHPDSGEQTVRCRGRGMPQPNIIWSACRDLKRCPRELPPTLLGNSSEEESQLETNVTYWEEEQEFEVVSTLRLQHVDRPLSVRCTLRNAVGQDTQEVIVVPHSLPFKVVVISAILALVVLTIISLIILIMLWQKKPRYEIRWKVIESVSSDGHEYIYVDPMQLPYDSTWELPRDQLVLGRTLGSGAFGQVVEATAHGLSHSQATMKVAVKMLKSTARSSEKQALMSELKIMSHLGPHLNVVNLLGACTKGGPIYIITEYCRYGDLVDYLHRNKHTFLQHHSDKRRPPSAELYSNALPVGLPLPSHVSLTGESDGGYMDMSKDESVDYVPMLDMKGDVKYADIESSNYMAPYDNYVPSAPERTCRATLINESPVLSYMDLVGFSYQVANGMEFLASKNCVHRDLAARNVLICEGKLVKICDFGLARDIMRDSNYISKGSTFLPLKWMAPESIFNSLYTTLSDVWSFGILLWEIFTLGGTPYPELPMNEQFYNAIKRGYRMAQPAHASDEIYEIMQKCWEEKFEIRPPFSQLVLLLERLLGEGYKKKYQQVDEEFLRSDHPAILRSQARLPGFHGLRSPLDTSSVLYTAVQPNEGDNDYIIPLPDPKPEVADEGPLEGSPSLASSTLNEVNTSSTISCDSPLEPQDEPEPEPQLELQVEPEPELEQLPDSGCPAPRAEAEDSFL

Sequence of PDGFRβ (Q05030 32-1097): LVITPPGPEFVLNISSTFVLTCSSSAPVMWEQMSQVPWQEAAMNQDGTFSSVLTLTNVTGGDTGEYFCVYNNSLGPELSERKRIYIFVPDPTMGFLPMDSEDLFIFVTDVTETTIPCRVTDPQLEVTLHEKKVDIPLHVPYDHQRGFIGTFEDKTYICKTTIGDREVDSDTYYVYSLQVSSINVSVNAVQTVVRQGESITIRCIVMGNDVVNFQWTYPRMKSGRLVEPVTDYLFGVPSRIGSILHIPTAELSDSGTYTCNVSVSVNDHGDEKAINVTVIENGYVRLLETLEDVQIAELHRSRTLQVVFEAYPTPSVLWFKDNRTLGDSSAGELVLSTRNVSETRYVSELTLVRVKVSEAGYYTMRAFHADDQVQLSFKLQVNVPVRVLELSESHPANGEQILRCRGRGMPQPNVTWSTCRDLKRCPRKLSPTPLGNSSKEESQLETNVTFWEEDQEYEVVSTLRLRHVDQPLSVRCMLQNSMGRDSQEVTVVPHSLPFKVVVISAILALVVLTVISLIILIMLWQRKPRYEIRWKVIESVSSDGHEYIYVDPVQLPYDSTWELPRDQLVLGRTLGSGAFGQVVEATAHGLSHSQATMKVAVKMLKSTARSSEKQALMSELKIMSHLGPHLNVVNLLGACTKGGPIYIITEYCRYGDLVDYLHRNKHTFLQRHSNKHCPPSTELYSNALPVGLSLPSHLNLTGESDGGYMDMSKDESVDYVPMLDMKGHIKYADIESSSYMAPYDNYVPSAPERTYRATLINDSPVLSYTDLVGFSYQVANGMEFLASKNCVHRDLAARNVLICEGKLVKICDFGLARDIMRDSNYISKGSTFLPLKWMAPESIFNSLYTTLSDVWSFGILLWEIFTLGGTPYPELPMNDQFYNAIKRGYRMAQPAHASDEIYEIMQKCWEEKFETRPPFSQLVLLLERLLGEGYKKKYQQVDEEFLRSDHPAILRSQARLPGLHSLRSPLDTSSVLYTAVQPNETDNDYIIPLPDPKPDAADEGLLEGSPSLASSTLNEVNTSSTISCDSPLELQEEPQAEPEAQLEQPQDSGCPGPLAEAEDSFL

Q: What does the source list for `Cc1ncc(NC(=O)CN(C)C2CCOCC2)cc1NC(=O)c1cnn2cc(-c3cnn(C4CCC4)c3)sc12` [Example 296, 2-(1-cyclobutyl-1H-pyrazol-4-yl)-N-(2-methyl-5-(2-(methyl(tetrahydro-2H-pyran-4-yl)amino)acetamido)pyridin-3-yl)pyrazolo[5,1-b]thiazole-7-carboxamide]?
A: IC50 (PDGFRβ; read-out: PDGFR Cellular IC50): 7.6 nM; IC50 [1]: 3.7 nM

Q: Which results are given for `COc1ncccc1-c1cn2ncc(C(=O)Nc3cc(NC(=O)CN4CCCC4)cnc3C)c2s1` [Example 313, 2-(2-methoxypyridin-3-yl)-N-(2-methyl-5-(2-(pyrrolidin-1-yl)acetamido)pyridin-3-yl)pyrazolo[5,1-b]thiazole-7-carboxamide]?
A: IC50 (PDGFRβ; read-out: PDGFR Cellular IC50): 2.8 nM; IC50 [1]: 2.6 nM

Q: How did the IC50 (PDGFRβ; read-out: PDGFR Cellular IC50) turn out when `Cc1ncc(NC(=O)CN2CCCCC23COC3)cc1NC(=O)c1cnn2cc(-c3cnn(C)c3)sc12` [Example 25, N-(5-(2-(2-oxa-5-azaspiro[3.5]nonan-5-yl)acetamido)-2-methylpyridin-3-yl)-2-(1-methyl-1H-pyrazol-4-yl)pyrazolo[5,1-b]thiazole-7-carboxamide] was run?
A: 27.7 nM

Q: And the IC50 [1]?
A: 6.6 nM

Q: `Cc1ncc(NC(=O)CN(C)C2CCOCC2)cc1NC(=O)c1cnn2cc(-c3cnn(CS(C)(=O)=O)c3)sc12` [Example 298, N-(2-methyl-5-(2-(methyl(tetrahydro-2H-pyran-4-yl)amino)acetamido)pyridin-3-yl)-2-(1-((methylsulfonyl)methyl)-1H-pyrazol-4-yl)pyrazolo[5,1-b]thiazole-7-carboxamide] was tested. Which IC50 (PDGFRβ; PDGFR Cellular IC50) did it give?
A: 236 nM

Q: And the IC50 [1]?
A: 6.4 nM

Q: With `Cc1ncc(NC(=O)CN2CC(C)(C)C2)cc1NC(=O)c1cnn2cc(-c3cnn(CC4COC4)c3)sc12` [Example 263, N-(5-(2-(3,3-dimethylazetidin-1-yl)acetamido)-2-methylpyridin-3-yl)-2-(1-(oxetan-3-ylmethyl)-1H-pyrazol-4-yl)pyrazolo[5,1-b]thiazole-7-carboxamide] as the compound, how does the IC50 (PDGFRβ; read-out: PDGFR Cellular IC50) read?
A: 13.9 nM

Q: What about the IC50 [1] of the same compound?
A: 7.9 nM

Q: Which results are given for `COc1ncccc1-c1cn2ncc(C(=O)Nc3cc(NC(=O)CN4CCOC(C)(C)C4)cnc3C)c2s1` [Example 319, N-(5-(2-(2,2-dimethylmorpholino)acetamido)-2-methylpyridin-3-yl)-2-(2-methoxypyridin-3-yl)pyrazolo[5,1-b]thiazole-7-carboxamide]?
A: IC50 (PDGFRβ; read-out: PDGFR Cellular IC50): 2.7 nM; IC50 [1]: 1.8 nM

Q: For `Cc1ncc(NC(=O)[C@@H]2C[C@@H](C)CN2C)cc1NC(=O)c1cnn2cc(-c3cnn(C)c3)sc12` [Example 304, N-(5-((2S,4R)-1,4-dimethylpyrrolidine-2-carboxamido)-2-methylpyridin-3-yl)-2-(1-methyl-1H-pyrazol-4-yl)pyrazolo[5,1-b]thiazole-7-carboxamide], which IC50 (PDGFRβ; read-out: PDGFR Cellular IC50) is on record?
A: 9.3 nM

Q: What about the IC50 [1] of the same compound?
A: 5.6 nM

Q: Which results are given for `COCCn1cc(-c2cn3ncc(C(=O)Nc4cc(NC(=O)CN5CC(C)(C)C5)cnc4C)c3s2)cn1` [Example 261, N-(5-(2-(3,3-dimethylazetidin-1-yl)acetamido)-2-methylpyridin-3-yl)-2-(1-(2-methoxyethyl)-1H-pyrazol-4-yl)pyrazolo[5,1-b]thiazole-7-carboxamide]?
A: IC50 (PDGFRβ; read-out: PDGFR Cellular IC50): 4.2 nM; IC50 [1]: 4.9 nM

Q: What does the source list for `Cc1ncc(NC(=O)CN2CC(C)(C)C2)cc1NC(=O)c1cnn2cc(-c3cnn(C4CCNCC4)c3)sc12` [Example 293, N-(5-(2-(3,3-dimethylazetidin-1-yl)acetamido)-2-methylpyridin-3-yl)-2-(1-(piperidin-4-yl)-1H-pyrazol-4-yl)pyrazolo[5,1-b]thiazole-7-carboxamide]?
A: IC50 (PDGFRβ; read-out: PDGFR Cellular IC50): 337 nM; IC50 [1]: 4.6 nM

Q: With `Cc1ncc(NC(=O)CC(C)N2CCCCC2)cc1NC(=O)c1cnn2cc(-c3cnn(C)c3)sc12` (stereo not shown) [Example 307, 2-(1-methyl-1H-pyrazol-4-yl)-N-(2-methyl-5-(3-(piperidin-1-yl)butanamido)pyridin-3-yl)pyrazolo[5,1-b]thiazole-7-carboxamide] as the compound, how does the IC50 (PDGFRβ; read-out: PDGFR Cellular IC50) read?
A: 73.2 nM

Q: What about the IC50 [1] of the same compound?
A: 210 nM

Q: With `Cc1ncc(NC(=O)C[C@@H]2CCCN2C(C)C)cc1NC(=O)c1cnn2cc(-c3cccnc3O)sc12` [Example 322, (S)-2-(2-hydroxypyridin-3-yl)-N-(5-(2-(1-isopropylpyrrolidin-2-yl)acetamido)-2-methylpyridin-3-yl)pyrazolo[5,1-b]thiazole-7-carboxamide] as the compound, how does the IC50 (PDGFRβ; read-out: PDGFR Cellular IC50) read?
A: 122 nM

Q: What about the IC50 [1] of the same compound?
A: 15.5 nM

Q: Which IC50 (PDGFRβ; read-out: PDGFR Cellular IC50) does the source give for `Cc1ncc(NC(=O)CN2CC(C)(C)C2)cc1NC(=O)c1cnn2cc(-c3cn[nH]c3)sc12` [Example 271, N-(5-(2-(3,3-dimethylazetidin-1-yl)acetamido)-2-methylpyridin-3-yl)-2-(1H-pyrazol-4-yl)pyrazolo[5,1-b]thiazole-7-carboxamide] here?
A: 10.3 nM

Q: And the IC50 [1]?
A: 2.8 nM

Q: Which IC50 (PDGFRβ; read-out: PDGFR Cellular IC50) does the source give for `COc1ncccc1-c1cn2ncc(C(=O)Nc3cc(NC(=O)[C@@H]4C[C@H](C)CN4C)cnc3C)c2s1` [Example 317, N-(5-((2S,4S)-1,4-dimethylpyrrolidine-2-carboxamido)-2-methylpyridin-3-yl)-2-(2-methoxypyridin-3-yl)pyrazolo[5,1-b]thiazole-7-carboxamide] here?
A: 6.5 nM

Q: What about the IC50 [1] of the same compound?
A: 2.5 nM

Q: With `Cc1ncc(NC(=O)CN(C)C2CCOCC2)cc1NC(=O)c1cnn2cc(-c3cnn(C(C)C#N)c3)sc12` (stereo not shown) [Example 297, 2-(1-(1-cyanoethyl)-1H-pyrazol-4-yl)-N-(2-methyl-5-(2-(methyl(tetrahydro-2H-pyran-4-yl)amino)acetamido)pyridin-3-yl)pyrazolo[5,1-b]thiazole-7-carboxamide] as the compound, how does the IC50 (PDGFRβ; read-out: PDGFR Cellular IC50) read?
A: 98 nM

Q: And the IC50 [1]?
A: 8.6 nM

Q: `Cc1ncc(NC(=O)CN2CC(C)(C)C2)cc1NC(=O)c1cnn2cc(-c3cnn(C)c3)sc12` [Example 22, N-(5-(2-(3,3-dimethylazetidin-1-yl)acetamido)-2-methylpyridin-3-yl)-2-(1-methyl-1H-pyrazol-4-yl)pyrazolo[5,1-b]thiazole-7-carboxamide] was tested. Which IC50 (PDGFRβ; read-out: PDGFR Cellular IC50) did it give?
A: 5.3 nM

Q: And the IC50 [1]?
A: 8.6 nM

Q: Which IC50 (PDGFRβ; read-out: PDGFR Cellular IC50) does the source give for `Cc1ncc(NC(=O)CN2CC(C)(C)C2)cc1NC(=O)c1cnn2cc(-c3cnn(CS(C)(=O)=O)c3)sc12` [Example 265, N-(5-(2-(3,3-dimethylazetidin-1-yl)acetamido)-2-methylpyridin-3-yl)-2-(1-((methylsulfonyl)methyl)-1H-pyrazol-4-yl)pyrazolo[5,1-b]thiazole-7-carboxamide] here?
A: 114 nM

Q: What about the IC50 [1] of the same compound?
A: 8.7 nM

Q: What does the source list for `Cc1ncc(NC(=O)CN2CC(C)(C)C2)cc1NC(=O)c1cnn2cc(-c3cnn(CC(N)=O)c3)sc12` [Example 267, 2-(1-(2-amino-2-oxoethyl)-1H-pyrazol-4-yl)-N-(5-(2-(3,3-dimethylazetidin-1-yl)acetamido)-2-methylpyridin-3-yl)pyrazolo[5,1-b]thiazole-7-carboxamide]?
A: IC50 (PDGFRβ; read-out: PDGFR Cellular IC50): 701 nM; IC50 [1]: 13.7 nM

Q: With `COCCn1cc(-c2cn3ncc(C(=O)Nc4cc(NC(=O)CN5CCCC5(C)C)cnc4C)c3s2)cn1` [Example 329, N-(5-(2-(2,2-dimethylpyrrolidin-1-yl)acetamido)-2-methylpyridin-3-yl)-2-(1-(2-methoxyethyl)-1H-pyrazol-4-yl)pyrazolo[5,1-b]thiazole-7-carboxamide] as the compound, how does the IC50 (PDGFRβ; PDGFR Cellular IC50) read?
A: 4.4 nM

Q: And the IC50 [1]?
A: 5.6 nM

Q: For `Cc1ncc(NC(=O)CN2CC(C)(C)C2)cc1NC(=O)c1cnn2cc(-c3cnn(CC(C)O)c3)sc12` (stereo not shown) [Example 281, N-(5-(2-(3,3-dimethylazetidin-1-yl)acetamido)-2-methylpyridin-3-yl)-2-(1-(2-hydroxypropyl)-1H-pyrazol-4-yl)pyrazolo[5,1-b]thiazole-7-carboxamide], which IC50 (PDGFRβ; read-out: PDGFR Cellular IC50) is on record?
A: 10.9 nM

Q: And the IC50 [1]?
A: 3.8 nM

Q: What does the source list for `Cc1ncc(NC(=O)CN2CC(C)(C)C2)cc1NC(=O)c1cnn2cc(-c3cnn(CC4CC4)c3)sc12` [Example 270, 2-(1-(cyclopropylmethyl)-1H-pyrazol-4-yl)-N-(5-(2-(3,3-dimethylazetidin-1-yl)acetamido)-2-methylpyridin-3-yl)pyrazolo[5,1-b]thiazole-7-carboxamide]?
A: IC50 (PDGFRβ; read-out: PDGFR Cellular IC50): 4.8 nM; IC50 [1]: 5.4 nM

Q: For `COCCn1cc(-c2cn3ncc(C(=O)Nc4cc(NC(=O)CN5CCC[C@@H]5C)cnc4C)c3s2)cn1` [Example 325, (S)-2-(1-(2-methoxyethyl)-1H-pyrazol-4-yl)-N-(2-methyl-5-(2-(2-methylpyrrolidin-1-yl)acetamido)pyridin-3-yl)pyrazolo[5,1-b]thiazole-7-carboxamide], which IC50 (PDGFRβ; read-out: PDGFR Cellular IC50) is on record?
A: 10.7 nM

Q: What about the IC50 [1] of the same compound?
A: 16.3 nM

Q: `Cc1ncc(NC(=O)CN2CCCC3(COC3)C2)cc1NC(=O)c1cnn2cc(-c3cnn(C)c3)sc12` [Example 24, N-(5-(2-(2-oxa-6-azaspiro[3.5]nonan-6-yl)acetamido)-2-methylpyridin-3-yl)-2-(1-methyl-1H-pyrazol-4-yl)pyrazolo[5,1-b]thiazole-7-carboxamide] was tested. Which IC50 (PDGFRβ; read-out: PDGFR Cellular IC50) did it give?
A: 31.8 nM

Q: What about the IC50 [1] of the same compound?
A: 4.5 nM

Q: How did the IC50 (PDGFRβ; read-out: PDGFR Cellular IC50) turn out when `Cc1ncc(NC(=O)CN2CC(C)(C)C2)cc1NC(=O)c1cnn2cc(-c3cnn(CC(F)(F)F)c3)sc12` [Example 268, N-(5-(2-(3,3-dimethylazetidin-1-yl)acetamido)-2-methylpyridin-3-yl)-2-(1-(2,2,2-trifluoroethyl)-1H-pyrazol-4-yl)pyrazolo[5,1-b]thiazole-7-carboxamide] was run?
A: 11.6 nM

Q: What about the IC50 [1] of the same compound?
A: 14.5 nM

Q: `Cc1ncc(NC(=O)CN2CCC3(CCOC3)C2)cc1NC(=O)c1cnn2cc(-c3cnn(C)c3)sc12` (stereo not shown) [Example 19, N-(5-(2-(2-oxa-7-azaspiro[4.4]nonan-7-yl)acetamido)-2-methylpyridin-3-yl)-2-(1-methyl-1H-pyrazol-4-yl)pyrazolo[5,1-b]thiazole-7-carboxamide] was tested. Which IC50 (PDGFRβ; read-out: PDGFR Cellular IC50) did it give?
A: 12.9 nM

Q: And the IC50 [1]?
A: 4.2 nM

Q: `COc1ncccc1-c1cn2ncc(C(=O)Nc3cc(NC(=O)OCCN4CCCC4(C)C)cnc3C)c2s1` [Example 254, 2-(2,2-dimethylpyrrolidin-1-yl)ethyl (5-(2-(2-methoxypyridin-3-yl)pyrazolo[5,1-b]thiazole-7-carboxamido)-6-methylpyridin-3-yl)carbamate] was tested. Which IC50 (PDGFRβ; read-out: PDGFR Cellular IC50) did it give?
A: 6.2 nM

Q: What about the IC50 [1] of the same compound?
A: 2.6 nM

Q: Which results are given for `Cc1ncc(NC(=O)[C@@H]2C[C@H](C)CN2C)cc1NC(=O)c1cnn2cc(-c3cccnc3O)sc12` [Example 316, N-(5-((2S,4S)-1,4-dimethylpyrrolidine-2-carboxamido)-2-methylpyridin-3-yl)-2-(2-hydroxypyridin-3-yl)pyrazolo[5,1-b]thiazole-7-carboxamide]?
A: IC50 (PDGFRβ; read-out: PDGFR Cellular IC50): 58.3 nM; IC50 [1]: 21.7 nM
